The results in this text go back to patent publication US8809234B1, “Drift reduction compositions for agricultural use” (AgQuam LLC, priority 2011, dated 2014).

Structures are written as SMILES.

Assay type in all cases: in vivo
What all share (details): Glyphosate 0.375 lb/acre; AMS 17 lb/100 gal, NIS, AQ 284 or AQ 268 […] v/v, INTERLOCK 4 fl oz/acre

One experiment concerns Corn. Put plainly: Greenhouse study for weed control, corn. How it is done:
(§1) A greenhouse study was conducted to test the efficacy of the AQ 284 combination water conditioning adjuvant and drift reduction composition compared to the commercial standard (INTERLOCK). Greenhouse research was conducted with individual plants growing in 3×3×3 inch pots. Greenhouse treatments were applied with a track sprayer using an 8002 E single nozzle applying 20 gpa.

Another experiment deals with Sunflower. Briefly: Greenhouse study for weed control, sunflower. How it is done:
as §1

In another experiment the test system is Wheat. Briefly: Greenhouse study for weed control, wheat. How it is done:
as §1

The next experiment concerns Corn, Sunflower, Wheat. Briefly: Greenhouse study for weed control, average of species. How it is done:
as §1

With `O=C(O)CNCP(=O)(O)O` [Glyphosate, N-(phosphonomethyl)glycine], the “Corn % Control 18 Days After Application” value in the experiment on Corn was determined as 10.0%. For the same molecule, the “Sunflower % Control 18 Days After Application” value in the experiment on Sunflower was found to be 15.0%. The “Wheat % Control 18 Days After Application” value in the experiment with Wheat came out at 15.0%. Further, the “Average % Control 18 Days After Application” value in the experiment with Corn, Sunflower, Wheat is 13.3%.
